This experiment has as its target T1, BDKRB2 reference form (Homo sapiens, UniProt P30411).
T1 construct: expressed in transfected cells; host or cells: CHO-K1
T1 sequence (P30411 1-391): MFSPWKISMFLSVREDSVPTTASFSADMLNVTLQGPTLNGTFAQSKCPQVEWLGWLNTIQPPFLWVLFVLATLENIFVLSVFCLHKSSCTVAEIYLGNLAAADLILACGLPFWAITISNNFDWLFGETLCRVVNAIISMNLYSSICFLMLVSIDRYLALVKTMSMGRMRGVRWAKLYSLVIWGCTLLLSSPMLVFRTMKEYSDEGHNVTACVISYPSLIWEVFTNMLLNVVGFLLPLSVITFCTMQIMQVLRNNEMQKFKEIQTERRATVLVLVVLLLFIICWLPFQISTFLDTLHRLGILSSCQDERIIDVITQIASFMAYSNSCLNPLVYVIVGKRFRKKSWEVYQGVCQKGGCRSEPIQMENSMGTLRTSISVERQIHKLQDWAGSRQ
Briefly: NFAT-Firefly luciferase reporter assay (Dual-Glo) of BDKRB2 dependent signaling in transfected CHO-K1 cells. The format is cell-based. The settings on record: 8 hour time-point. Background: A reporter such as luciferase makes a cellular process visible.

Description: FIG. 10: Effect of bradyzide titration on the activity of BDKRB2 reference form. CHO-K1 cells were transfected with pNFAT—Firefly Luciferase reporter, BDKBR2-pcDNA3.1 and pGL4.73 [hRenilla Luciferase/SV40]. 18 hrs after transfection, cells were treated with bradyzide at indicated concentration in 10% FBS medium for 8, 24 and 48 hrs. The Firefly luciferase reporter activity and the renilla luciferase activity were measured sequentially. BDKRB2 activity was estimated by calculating the Ratios of Firefly and Renilla Luciferase Units (RLU).
The Promega Dual-Glo™ Assay system was used to indirectly monitor BDKRB2 dependent signaling.

With `CN(C)CCN(C)CCNC(=O)[C@@H]1CCCN1S(=O)(=O)c1ccc(NNC(=S)NC(c2ccccc2)c2ccccc2)c([N+](=O)[O-])c1` [bradyzide], the “inhibition of serum induced activity in luciferase reporter assay” value is reported as “inhibited”. Where the note is “bradyzide titration, 10% FBS medium”, the “reduction of serum-induced basal BDKRB2 activity” value is recorded as “about 40%”.

These data come from US20090246269A1, “IDENTIFICATION AND USE OF GPRC VARIANTS IN THE TREATMENT AND DIAGNOSIS OF PARKINSON'S DISEASE” (priority 2006, published 2009).
